Counter-ions that a name gives are not always drawn.
Legend:
[1] = system: cultured airway epithelia; experiment: Confocal microscopy assay of drug uptake into cultured airway epithelia; type: cell-based; conditions: compound on apical surface of airway cultures, x-z confocal microscopy; relative to amiloride
Protocol: FIG. 2 is an example of a confocal microscopy assay of drug uptake into cultured airway epithelia. In this assay, a compound (10^−4 M) is placed on the airway surface and fluorescence from the cells collected by x-z scanning confocal microscopy. The images shown on the left depict fluorescence in the cells 20 minutes after exposure to amiloride, benzamil and phenamil. Quantitation of the drug uptake is graphically illustrated on the right in terms of units of fluorescence.
The second assay utilizes confocal microscopy of amiloride congener uptake: Virtually all amiloride-like molecules fluoresce in UV range. This property of these molecules was used to directly measure cellular uptake, using a x-z confocal microscope (Leica). […] Serial x-z images were obtained with time and the magnitude of fluorescence accumulating in the cell compartment quantitated and plotted. […] Two compounds from the synthesis series described above (CF-509 and CF-519) appear to fulfil this criterion. Compounds that were equipotent or greater with amiloride were tested for wash-out as described above. However, because wash-out may reflect both potency and cell uptake, the rate of accumulation of fluorescence (indexed to the specific fluorescence/emission spectrum of each compound) in the cell compartment as a function of time was also routinely measured. […]

[2] = system: airway epithelial Na^+ currents; experiment: Lumenal drug inhibition of airway epithelial Na+ currents, monolayers in Ussing chambers, with wash-out; type: cell-based, human or dog; conditions: for Effect of washout (3) 100% = Baseline: after maximal concentration (10^-4 M), lumenal bath exchanged three times with fresh KBR; for IC50 / Max Inhibition (%) from baseline: mucosal bath, voltage clamp; for IC50: half-log dose addition
Protocol: In the second potency assay, airway epithelial monolayers mounted were in Ussing chambers: The principal assay consisted of tests of lumenal drug inhibition of airway epithelial Na^+ currents. Cells obtained from freshly excised human or dog airways were seeded onto SNAP-well Inserts (CoStar), cultured under air-liquid (ALI) conditions in hormonally defined media. The cells were assayed for Na^+ transport activity while bathed in Krebs bicarbonate Ringer (KBR) in the Ussing chambers under voltage clamp conditions. All test drug additions were to the mucosal bath with half-log dose addition protocols (10^−11 M-[…]). All drugs were made in standard stocks of 10^−2 M drug in DMSO. Eight preparations were typically run in parallel; two preparations/run were routinely used to assay amiloride and benzamil. After the maximal concentration (10^−4 M) was administered, the lumenal bath was exchanged three times with fresh KBR solution, which was defined as the “wash-out” effect. All data from the voltage clamps were collected via a computer interface and analyzed off-line.
Dose-effect relationships for all compounds were considered and analyzed by the Prism 3.0 program. The IC50, maximal effective concentrations, and percent washout were calculated and compared to those of amiloride and benzamil as reference compounds.
The first assay is referred to an assay of reversibility. Empirically, the percent of wash-out correlates with cellular uptake. The relationship is complex because reversibility is also a function of potency. However, reversibility is a quick and simple screen. The compounds that “reverse” best in this assay referenced to benzamil were also the least absorbed in the confocal assay, as described below.

Compound | Cellular uptake (fluorescence accumulating in the cell compartment) [1] | Effect of washout (3) 100% = Baseline [2] [%] | IC50 [2] [nM] | Max Inhibition (%) from baseline [2] [%]
NC(=NCc1ccccc1)NC(=O)c1nc(Cl)c(N)nc1N [benzamil, 3,5-diamino-6-chloro-N-(benzylaminoaminomethylene) pyrazinecarboxamide, reference compound] | rapid | – | – | –
N/C(=N\C(=O)c1nc(Cl)c(N)nc1N)NCc1ccc(CN/C(N)=N/C(=O)c2nc(Cl)c(N)nc2N)cc1 [CF-516, 1,4-Bis[(3,5-diamino-6-chloropyrazinoyl)guanidinol]xylylene Dihydrobromide] | – | 65 | 330 | 90
Br.Br.N=C(NCc1cccc(CNC(=N)NC(=O)c2nc(Cl)c(N)nc2N)c1)NC(=O)c1nc(Cl)c(N)nc1N [CF-512, 1,3-Bis[(3,5-diamino-6-chloropyrazinovl)guanidino]xylylene Dihydrobromide] | – | 60 | 197 | 92

Source: patent US6475509B1, “Covalent conjugates of sodium channel blockers and active compounds” (The University of North Carolina at Chapel Hill, priority 1999, dated 2002)
